Where a name gives a salt, the structure may show the parent alone. Read-outs that look alike come from different tables or passages of the source.
What was measured:
[1] = Pharmacokinetic studies in mice, oral application; format: in vivo; details: male, C57BL/6, brain / plasma, mouse
Procedure: Pharmacokinetic Studies in Mice
A suspension of the respective test articles (30 mg/kg, 10 ml/kg, 3 mg/ml) was prepared in 0.6% methyl cellulose (MC) by thorough mixing of the fine solid with the freshly made and filtered MC solution and administered to 24 non-fasted male C57BL/6 mice (20-25 g) by gavage. Terminal blood sampling (with the addition of K2-EDTA) was performed at 0.25, 0.5, 1, 2, 4, 6, 8 and 24 h post admin. Plasma was generated by centrifugation and deep-frozen (−20° C.). In addition, after 2 h, brain and liver were removed from the respective 3 mice. Additional plasma was collected from terminal blood. The organs were pooled, homogenized and the homogenate extracted with an acetonitrile-water mixture prior to measurement by HPLC-MS/MS. The brain/plasma ratio was determined at 2 h by dividing the brain concentration at 2 h through the respective value for the plasma concentration at 2 h.
Ex. 004: 21 mice were used in the study, without the 6 h sampling time. The same study design was applied.
A suspension of the respective test articles (30 mg/kg, 10 ml/kg, 3 mg/ml) was prepared in freshly prepared and filtered 0.6% methyl cellulose solution by wet-milling using Retsch MM 301 mixer mill (10 min, room temperature) and administered to 6 non-fasted male C57BL/6 mice (20-25 g) by gavage. Serial sampling of blood (with the addition of K3-EDTA) was performed at 0.25, 0.5, 1, 2, 4, 6, 8 and 24 h post admin. The blood samples were diluted (10 μl blood were added to a mixture of 90 μl 25% acetonitrile in water) and deep-frozen (−20° C.). After 2 h, 3 of the 6 animals were sacrificed and brain and liver taken off. Additional plasma was prepared from terminal blood. The organs were homogenized and the homogenate extracted with an acetonitrile-water mixture prior to measurement by HPLC-MS/MS. The brain/plasma ratio was determined at 2 h by dividing the brain concentration at 2 h through the respective value for the plasma concentration at 2 h.

[2] = target: T1, hRIPK1 (aa 1-375) fusion protein (Homo sapiens, UniProt Q13546); assay: ADP-Glo kinase assay, RIPK1 autophosphorylation; format: biochemical
T1 construct: hRIPK1 (aa 1-375) fusion protein
T1 sequence (Q13546 1-375): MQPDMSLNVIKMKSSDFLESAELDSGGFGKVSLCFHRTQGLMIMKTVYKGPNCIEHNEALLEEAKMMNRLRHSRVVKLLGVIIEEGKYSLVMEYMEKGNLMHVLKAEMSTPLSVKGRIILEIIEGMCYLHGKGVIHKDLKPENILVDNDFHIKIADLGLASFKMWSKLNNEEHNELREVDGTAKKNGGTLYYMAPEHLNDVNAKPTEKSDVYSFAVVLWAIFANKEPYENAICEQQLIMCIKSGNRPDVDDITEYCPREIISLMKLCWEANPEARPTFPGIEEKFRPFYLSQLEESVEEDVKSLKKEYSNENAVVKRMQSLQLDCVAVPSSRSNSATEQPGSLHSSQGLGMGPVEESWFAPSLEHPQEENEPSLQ

U937 cells [3] = assay: Cellular assay in U937 cells on cell death (necroptosis), TNFα/zVAD.fmk; format: cell-based; details: Homo sapiens
Procedure, shortened: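 U937 cells with 100 ng/ml TNFα plus 50 μM zVAD.fmk (pre-addition suspension levels) received 10 compound concentrations (10 μM–0.26 nM or 1 μM–0.07 nM) for 18–24 h at 37 °C. Live cells were read by MTS formazan absorbance at 490 nm after 4 h. % inhibition is relative to the maximal value without TNFα/zVAD.fmk.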

[4] = monkeys, doses ≥100 mg/kg; cited from earlier work
U937 cells [5] = details: Comparator table 5; data from P.A. Harris et al. J Med Chem 2019, 62, 5096; cited from earlier work
[6] = Pharmacokinetic studies in mice, intravenous application with non-serial sampling; format: in vivo
Procedure: Intravenous Application with Non-Serial Sampling Compound K
A solution of the respective test articles (3 mg/kg, 5 mL/kg, 0.6 mg/mL) was prepared by dissolving the solids in 7.5% N-Methyl pyrrolidon followed by addition of 60% PEG200 and 32.5% water for injection. Intravenous administration to 24 (3×8, groups per time) non-fasted male C57BL/6 mice (20-25 g) followed immediately after preparation. Terminal blood sampling (with the addition of K2-EDTA) was performed at 0.083, 0.25, 0.5, 1, 2, 4, 8 and 24 h post admin. Plasma was generated by centrifugation and deep-frozen (−20° C.). In addition, brain and liver were removed from all animals. The organs were pooled per time group, homogenized and the homogenate extracted with an acetonitrile-water mixture prior to measurement by HPLC-MS/MS. The brain/plasma ratio was determined by dividing the brain concentration through the respective value for the plasma concentration at the same sampling time.

[7] = Intravenous application to cynomolgus monkeys, side effects and histopathology; format: in vivo, cynomolgus monkey; details: 1 mg/kg, i.v.
[8] = 2 h, oral 30 mg/kg, read-out: Mouse PK brain/blood ratio
[9] = U-937, Comparator table 5, read-out: U937 IC50 (uM) Mean
[10] = U-937, Table 2, read-out: U937 IC50

SMILES	IC50 ([2]; Table 1) [nM]	IC50 (U937 cells [3]; [10]) [µM]	further results
N#Cc1cc(N2CCC(C(=O)N3OCC[C@H]3c3cc(F)cc(F)c3)CC2)ncn1 [A, reference compound]			Kp at 2 h [1, 8]: 0.82; IC50 ([2]; Comparator table 5): 12 nM; IC50 (U937 cells [3]; [9]): 0.003 µM
NC(=O)c1cc(N2CCC(C(=O)N3OCC[C@H]3c3cc(F)cc(F)c3)CC2)ncn1 [D, reference compound]			Kp at 2 h [1, 8]: 1.1; IC50 ([2]; Comparator table 5): 10 nM; IC50 (U937 cells [3]; [9]): 0.004 µM
N#Cc1cc(N2CCC(C(=O)N3N=CC[C@H]3c3cc(F)cc(F)c3)CC2)ncn1 [G, reference compound]			Kp at 2 h [1, 8]: 1.5; IC50 (U937 cells [3]; [9]): 0.002 µM
CN1C(=O)[C@@H](NC(=O)c2nnc(Cc3ccccc3)[nH]2)COc2ccccc21 [GSK2982772]			central side effects [4]: irregular gait and uncoordinated movement
CC(C)(C)C(=O)N1N=CC[C@H]1c1cc(F)cc(F)c1 [H]			IC50 (U937 cells [5]): 0.006 µM
COc1cc(N2CCC(C(=O)N3OCC[C@H]3c3cc(F)cc(F)c3)CC2)ncn1 [K, reference compound]			IC50 ([2]; Comparator table 5): 18 nM; Mouse PK brain/blood ratio ([6]; 15 min, i.v. 3 mg/kg): 2.1 (15 min i.v. 3 mg/kg); IC50 (U937 cells [3]; [9]): 0.01 µM
COc1cc(N2CCC(C(=O)N3OCC[C@H]3c3cc(F)cc(F)c3)CC2)ncn1 [comparator compound K, [1-(6-Methoxypyrimidin-4-yl)-4-piperidyl]-[(3S)-3-(3,5-difluorophenyl)isoxazolidin-2-yl]methanone]			histopathological examination [7]: bilateral and symmetrical lesions of brain necrosis; side effects [7]: severe side effects; Kp at 2 h ([1]; 2 h after oral application of 30 mg/kg, read-out: brain/plasma ratio): 1.6; Kp at 15 min ([6]; male, C57BL/6, brain / plasma, iv, mouse, 15 min after i.v. application of 3 mg/kg, read-out: brain/blood ratio): 2.1; concentration at 15 min ([6]; male, C57BL/6, brain, iv, mouse, 15 min after i.v. application of 3 mg/kg, read-out: brain levels): 1580 ng/mL
CCOC(=O)c1nccc(N2CCC(C(=O)N3OCC[C@H]3c3cncc(C#N)c3)CC2)n1 [compound 149, ethyl 4-[4-[(3S)-3-(5-cyano-3-pyridyl)isoxazolidine-2-carbonyl]-1-piperidyl]pyrimidine-2-carboxylate]	370	6.17	
Cc1coc([C@@H]2CCON2C(=O)C2CCN(c3nccc(C#N)n3)CC2)c1 [compound 150, (S)-2-(4-(3-(4-methylfuran-2-yl)isoxazolidine-2-carbonyl)piperidin-1-yl)pyrimidine-4-carbonitrile]	69	0.0235	
Cc1coc([C@@H]2CCON2C(=O)C2CCN(c3nccc(C(N)=O)n3)CC2)c1 [compound 151, (S)-2-(4-(3-(4-methylfuran-2-yl)isoxazolidine-2-carbonyl)piperidin-1-yl)pyrimidine-4-carboxamide 2,2,2-trifluoroacetate salt]	100	0.025	
Cc1coc([C@@H]2CCON2C(=O)C2CCN(c3cc(C#N)ncn3)CC2)c1 [compound 152, (S)-6-(4-(3-(4-methylfuran-2-yl)isoxazolidine-2-carbonyl)piperidin-1-yl)pyrimidine-4-carbonitrile 2,2,2-trifluoroacetate salt]	132	0.128	
Cc1coc([C@@H]2CCON2C(=O)C2CCN(c3cc(C(N)=O)ncn3)CC2)c1 [compound 153, (S)-6-(4-(3-(4-methylfuran-2-yl)isoxazolidine-2-carbonyl)piperidin-1-yl)pyrimidine-4-carboxamide 2,2,2-trifluoroacetate salt]	102	0.0998	
Cc1cc([C@@H]2CCON2C(=O)C2CCN(c3nccc(C#N)n3)CC2)co1 [compound 162, (S)-2-(4-(3-(5-methylfuran-3-yl)isoxazolidine-2-carbonyl)piperidin-1-yl)pyrimidine-4-carbonitrile]	20.1	0.00541	
Cc1cc([C@@H]2CCON2C(=O)C2CCN(c3cc(C#N)ncn3)CC2)co1 [compound 163, (S)-6-(4-(3-(5-methylfuran-3-yl)isoxazolidine-2-carbonyl)piperidin-1-yl)pyrimidine-4-carbonitrile]	20.8	0.00604	
N#Cc1cncc([C@@H]2CCON2C(=O)C2CCN(c3cc(F)ncn3)CC2)c1 [compound 169, (S)-5-(2-(1-(6-fluoropyrimidin-4-yl)piperidine-4-carbonyl)isoxazolidin-3-yl)nicotinonitrile]	23.4	0.119	
N#Cc1cc([C@@H]2CCON2C(=O)C2CCN(c3nccc(C(N)=O)n3)CC2)cnn1 [compound 179, 2-[4-[(3S)-3-(6-cyanopyridazin-4-yl)isoxazolidine-2-carbonyl]-1-piperidyl]pyrimidine-4-carboxamide]	173	2.03	
Cc1ccc([C@@H]2CCON2C(=O)C2CCN(c3ncc(C)c(C(N)=O)n3)CC2)s1 [compound 182, 5-methyl-2-[4-[(3S)-3-(5-methyl-2-thienyl)isoxazolidine-2-carbonyl]-1-piperidyl]pyrimidine-4-carboxamide]	15.6	0.00701	
Cc1ccc([C@@H]2CCON2C(=O)C2CCN(c3ncnc(C(N)=O)c3F)CC2)cn1 [compound 187, 5-fluoro-6-[4-[(3S)-3-(6-methyl-3-pyridyl)isoxazolidine-2-carbonyl]-1-piperidyl]pyrimidine-4-carboxamide; trifluoroacetic acid]	65.9	0.321	
